{"source": "paper PMC7839672", "about": "“Effect of the PHY Domain on the Photoisomerization Step of the Forward Pr→Pfr Conversion of a Knotless Phytochrome” (Chemistry (Weinheim an Der Bergstrasse, Germany), 2020)", "molecular_target": "T1, All2699g1g2 (g1g2) (Nostoc sp. PCC 7120 = FACHB-418, UniProt A0ACD6B963)", "T1 construct": "gene all2699; GAF1-GAF2 (GAF-PHY) photosensory module of All2699; borders, tags and host not in main text", "T1 sequence (A0ACD6B963 1-656 limits assumed)": "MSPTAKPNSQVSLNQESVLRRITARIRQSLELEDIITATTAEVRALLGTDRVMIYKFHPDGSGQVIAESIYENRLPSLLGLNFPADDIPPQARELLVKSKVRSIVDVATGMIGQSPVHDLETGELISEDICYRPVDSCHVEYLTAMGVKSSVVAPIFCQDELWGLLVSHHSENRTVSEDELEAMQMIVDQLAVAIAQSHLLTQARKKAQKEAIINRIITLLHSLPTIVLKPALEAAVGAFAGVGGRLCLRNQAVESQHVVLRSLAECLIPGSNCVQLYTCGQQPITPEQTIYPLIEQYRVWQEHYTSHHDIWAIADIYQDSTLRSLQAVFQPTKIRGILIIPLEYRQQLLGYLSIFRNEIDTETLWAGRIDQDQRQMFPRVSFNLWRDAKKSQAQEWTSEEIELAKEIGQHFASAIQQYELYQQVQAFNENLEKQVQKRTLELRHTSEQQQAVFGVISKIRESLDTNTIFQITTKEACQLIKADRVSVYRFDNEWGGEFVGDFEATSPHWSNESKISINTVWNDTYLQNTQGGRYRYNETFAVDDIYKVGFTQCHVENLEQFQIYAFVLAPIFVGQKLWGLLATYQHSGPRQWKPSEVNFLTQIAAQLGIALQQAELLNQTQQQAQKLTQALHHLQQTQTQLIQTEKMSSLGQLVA", "experiment": "steady-state absorption, CD and femtosecond transient absorption of the chromophore-bound protein", "type": "binding", "details": "covalent (known biology, not given); chromophore embedded in GAF1 domain; Pr and Pfr states", "data": [{"smiles": "C/C=C1/C(=C/C2=NC(=C\\c3[nH]c(/C=C4\\NC(=O)C(CC)=C4C)c(C)c3CCC(=O)O)/C(CCC(=O)O)=C2C)NC(=O)[C@@H]1C", "note": "[PCB, phycocyanobilin]", "values": [{"measurement": "steady-state absorption, CD and femtosecond transient absorption of the chromoph", "result": "interactions of the PCB chromophore with the “tongue” region of the g2 domain in g1g2"}]}]}
